Test results as given in patent US20250197428A1, “INHIBITORS OF KIF18A AND USES THEREOF” (ACCENT THERAPEUTICS, INC., priority 2022, published 2025).
Where two headings read alike, the source gives them in different places.

Columns and labels:
[1] = Caco-2 permeation assay, bidirectional permeability; assay type: in vitro ADME; settings: human, Caco-2, pH 7.4, 5 μM, Papp(B-A)/Papp(A-B)
Experimental: 1. Caco-2 Permeation Assay: Evaluation of the Bidirectional Permeabilities of Compounds.
Samples were analyzed through LC/MS/MS for estimating the apparent permeability coefficients (Papp) of compounds across Caco-2 cell monolayers. Caco-2 cells (American Type Culture Collection) were incubated and seeded onto HTS Transwell-96 Well Permeable Supports (Corning Corporation) for 14 days using a cell medium consisting of Dulbecco's Modified Eagle's Medium (DMEM) with high glucose and L-glutamine supplemented with 10% FBS, 1× penicillin-streptomycin mixture and 1×non-essential amino acids (NEAA). Cell monolayer integrity was measured using an automated tissue resistance measuring system (World Precision Instruments). Stock solutions of compounds and control compounds in DMSO were diluted with HBSS (10 mM HEPES, pH 7.4) to reach a final concentration of 5 μM with a final concentration of DMSO <0.1%. HBSS was then removed after 30 minutes of preincubation, and 75 μL of test compound was added to the apical compartment of the Transwell insert. The basolateral compartment was filled with 235 μL of HBSS (10 mM HEPES, pH 7.4) containing 2% BSA. Rate of drug transport in the basolateral to apical direction was obtained by adding 235 μL of test compound to the receiver plate wells (basolateral compartment) and filling with 75 μL of HBSS (10 mM HEPES, pH 7.4) containing 2% BSA. Time 0 samples were prepared by transferring 25 μL of 5 μM working solution to wells of the 96-deepwell plate containing 25 μL HBSS (10 mM HEPES and 2% BSA, pH 7.4), followed by the addition 200 μL of cold methanol containing appropriate internal standards (100 nM alprazolam, 200 nM labetalol, 200 nM caffeine and 200 nM diclofenac). After incubating at 37° C. for 2 h, 25 μL samples from donor sides (apical compartment) were transferred to a 96-well plate containing 25 μL HBSS (10 mM HEPES and 2% BSA, pH 7.4). 25 μL samples from receiver sides (basolateral compartment) were removed and transferred to a new plate containing 25 μL HBSS (10 mM HEPES, pH 7.4). 200 μL of cold methanol containing internal standards (100 nM alprazolam, 200 nM labetalol, 200 nM caffeine and 200 nM diclofenac) was added to terminate the reaction. Samples were vortexed for 5 minutes and then centrifuged at 3,220 g for 40 minutes. An aliquot of 100 μL of the supernatant is mixed with 100 μL of ultra-pure water for LC-MS/MS analysis. All incubations are performed in duplicate. Solutions were discarded from the transwell plate. 100 μL Lucifer Yellow solution (100 μM in HBSS) was added to each well of transwell insert and 300 μL of HBSS to each well of receiver. After incubating at 37° C. for 30 minutes, 80 μL was aliquotted from each well of apical and basolateral sides to a solid black plate. The plate was then read with Tecan Infinite™ M 200 (Excitation/Emission wavelength […]).
All calculations were carried out using Microsoft Excel. Peak areas were determined from extracted ion chromatograms. The leakage of Lucifer Yellow, in unit of percentage (%), can be calculated using the following equation: […]
LY leakage of <1% is acceptable to indicate the well-qualified Caco-2 monolayers. The apparent permeability coefficient (Papp), in units of centimeter per second, can be calculated for Caco-2 drug transport assays using the following equation: […]
Where VA is the volume (in mL) in the receiver well (0.235 mL for Ap→Bl flux and 0.075 mL for Bl→Ap flux), Area is the surface area of the membrane (0.143 cm^2 for HTS Transwell-96 Well Permeable Supports), and time is the total transport time in seconds. The efflux ratio can be determined using the following equation: […]
Where Papp (B-A) indicates the apparent permeability coefficient in basolateral to apical direction, and Papp (A-B) indicates the apparent permeability coefficient in apical to basolateral direction.
The recovery can be determined using the following equation: […]

OVCAR-3 cells = assay: In vitro anti-proliferative activity assay in cancer cell line OVCAR-3 (CellTiter-Glo, 4- or 7-day); assay type: cell-based; settings: Homo sapiens, read-out: OVCAR-3 cellular antiproliferation assay IC50
KIF18A = KIF18A (Homo sapiens (Human), UniProt Q8NI77); assay: KIF18A Biochemical Assay (ATPase, ADP-Glo)
[2] = In vivo pharmacokinetic evaluation in mouse; parameters: species or system female balb/c nude mice; settings: for IV Clearance / Vd: 3 mg/kg IV; for Vd: read-out: IV Vss
[3] = system: human megakaryocyte (CFU-MK) progenitors from human bone marrow mononuclear cells; assay: Human megakaryocyte progenitor colony formation assay (CFU-MK); assay type: cell-based; settings: 336 h, read-out: Free-fraction adjusted CFU-MK IC50
[4] = Bone marrow concentration in 28 day OVCAR-3 xenograft study; assay type: in vivo, mice; settings: NOD SCID, mouse, 30 mg/kg QD oral, 28 day study
Experimental: On Day 28, tissues were collected from animals. About 30-60 μL of whole blood was collected into tubes containing EDTA anticoagulant, and plasma was harvested by centrifugation at 4,000 g×5 min and stored at −80° C. until analysis. Plasma analysis followed the same protocol as for the Day 1 plasma analysis. Additionally, the femurs of the mice were cut and put in pre-weighed tubes. The bone marrow was harvested by centriguation at 8,000 g×15 min. Then, the total weight of both the bone marrow and the tube was recorded. The bone marrow was stored at −80° C. until analysis.
Samples were collected from animals 6 h after the last dose of compound and at 24 h after the last dose of compound.

[5] = 14 days culture, adjusted for binding to assay buffer

Chain of KIF18A (Q8NI77 1-367): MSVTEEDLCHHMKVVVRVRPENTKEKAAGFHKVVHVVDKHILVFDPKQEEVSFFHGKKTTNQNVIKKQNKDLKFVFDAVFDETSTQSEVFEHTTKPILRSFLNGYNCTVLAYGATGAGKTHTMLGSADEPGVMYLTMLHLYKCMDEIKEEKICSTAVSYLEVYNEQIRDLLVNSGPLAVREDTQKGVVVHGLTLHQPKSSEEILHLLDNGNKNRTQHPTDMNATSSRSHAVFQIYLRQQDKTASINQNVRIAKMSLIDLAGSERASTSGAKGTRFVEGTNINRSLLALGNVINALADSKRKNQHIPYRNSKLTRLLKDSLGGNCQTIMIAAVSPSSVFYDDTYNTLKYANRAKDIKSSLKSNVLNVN
Chain of KIF18A (P02550 whole entry partner): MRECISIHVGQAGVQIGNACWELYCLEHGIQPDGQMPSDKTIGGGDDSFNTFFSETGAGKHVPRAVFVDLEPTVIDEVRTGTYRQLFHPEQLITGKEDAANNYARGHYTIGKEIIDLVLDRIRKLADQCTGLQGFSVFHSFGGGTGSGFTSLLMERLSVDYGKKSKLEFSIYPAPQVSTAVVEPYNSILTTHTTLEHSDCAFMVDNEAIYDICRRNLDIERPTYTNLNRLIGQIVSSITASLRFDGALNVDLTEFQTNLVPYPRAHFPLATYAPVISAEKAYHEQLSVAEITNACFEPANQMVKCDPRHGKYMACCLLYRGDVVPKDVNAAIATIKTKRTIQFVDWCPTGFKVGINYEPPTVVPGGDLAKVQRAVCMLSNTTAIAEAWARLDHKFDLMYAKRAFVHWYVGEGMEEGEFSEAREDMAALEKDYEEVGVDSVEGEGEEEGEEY
Chain of KIF18A (P02554 whole entry partner): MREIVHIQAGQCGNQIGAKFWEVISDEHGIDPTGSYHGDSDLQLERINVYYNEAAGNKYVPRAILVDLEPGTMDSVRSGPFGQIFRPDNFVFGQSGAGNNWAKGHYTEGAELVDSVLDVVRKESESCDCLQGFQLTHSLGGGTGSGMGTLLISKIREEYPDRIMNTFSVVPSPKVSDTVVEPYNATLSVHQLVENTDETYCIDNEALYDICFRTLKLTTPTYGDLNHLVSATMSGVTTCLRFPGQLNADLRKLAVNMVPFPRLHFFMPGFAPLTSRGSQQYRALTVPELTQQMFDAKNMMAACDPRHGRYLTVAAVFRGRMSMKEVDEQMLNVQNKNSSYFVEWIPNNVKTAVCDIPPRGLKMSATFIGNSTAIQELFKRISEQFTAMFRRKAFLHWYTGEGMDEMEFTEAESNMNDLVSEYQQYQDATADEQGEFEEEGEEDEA

Compound	efflux ratio at 2 h, 5 μM [1]	IC50 (OVCAR-3 cells; OVCAR-3, 168 h, 7-day assay)	IC50 (KIF18A)	IC50 (OVCAR-3 cells; OVCAR-3, 96 h, 4-day assay)	other results
Cc1cc(NC(=O)c2ccc(NS(=O)(=O)CCO)cc2N2CC[C@@]3(F)CC[C@H]3C2)nc(N2CCC(F)(F)CC2)n1 (single isomer, unassigned) [Example 50b]	< 10	100 to 500 nM	< 100 nM	–	IV Clearance [2]: 0.74 mL/ming/kg; Vd ([2]; female, balb/c nude, plasma): 0.51 L/kg; Cmax ([2]; female, balb/c nude, plasma, 10 mg/kg PO): 10100 ng/mL; half-life ([2]; female, balb/c nude, plasma, 10 mg/kg PO, read-out: PO T1/2 (converted)): 10.6 h
C[Si]1(C)CCN(c2cc(NS(=O)(=O)CCO)c(F)cc2C(=O)Nc2cccc(N3CCC(F)(F)CC3)n2)CC1 [Example 14]	–	–	< 100 nM	< 100 nM	IC50 [3]: 61 nM
Cc1cc(NC(=O)c2cc(F)c(NS(=O)(=O)CCO)cc2N2CC[Si](C)(C)CC2)nc(N2CCC(F)(F)CC2)c1 [Example 107]	< 10	< 100 nM	< 100 nM	–	IC50 [3, 5]: 47 nM
Cc1cc(NC(=O)c2ccc(NS(=O)(=O)CCO)cc2N2CCC3(CC2)CC3)nc(N2CCC(F)(F)CC2)n1 [Compound A, reference compound]	–	–	–	< 100 nM	concentration at 6 h ([4]; read-out: Bone marrow concentration at 6 h post-last dose): 17000 ng/g; concentration at 24 h ([4]; read-out: Bone marrow concentration at 24 h post-last dose): 4100 ng/g; IV Clearance [2]: 4.1 mL/ming/kg; Vd ([2]; female, balb/c nude, plasma): 2 L/kg
Cc1cc(NC(=O)c2cnc(NS(=O)(=O)CCO)cc2N2CC[Si](C)(C)CC2)nc(N2CCC(F)(F)CC2)n1 [Example 106]	< 10	< 100 nM	< 100 nM	–	–
CNS(=O)(=O)Nc1ccc(C(=O)Nc2cc(C)nc(C3CCC(F)(F)CC3)n2)c(N2CC[Si](C)(C)CC2)c1 [Example 118]	< 10	100 to 500 nM	< 100 nM	–	–
O=C(Nc1ccnc(N2CCC(F)(F)CC2)n1)c1cc2cnn(CCO)c2cc1N1CCC2(CC1)CC2 [Example 12]	< 10	–	500 to 1000 nM	> 1000 nM	–
C[Si]1(C)CCN(c2cc(NS(=O)(=O)CCN)ccc2C(=O)Nc2cccc(N3CCC(F)(F)CC3)n2)CC1 [Example 100]	< 10	100 to 500 nM	< 100 nM	–	–
C[Si]1(C)CCN(c2cc(NS(=O)(=O)CCO)ccc2NC(=O)c2ccnc(OCCC(F)(F)F)n2)CC1 [Example 88]	< 10	500 to 1000 nM	100 to 500 nM	–	–
Cc1ccc(NC(=O)c2ccc(NS(=O)(=O)CCO)cc2N2CC[Si](C)(C)CC2)nc1N1CCOCC1 [Example 2, 2-(4,4-dimethyl-1,4-azasilinan-1-yl)-4-((2-hydroxyethyl)sulfonamido)-N-(5-methyl-6-morpholinopyridin-2-yl)benzamide]	< 10	–	< 100 nM	< 100 nM	–
O=C(Nc1ccnc(C2CCC(F)(F)CC2)n1)c1ccc(NS(=O)(=O)CCO)cc1N1CC[C@]2(C(F)F)C[C@@H]2C1 [Example 75]	< 10	< 100 nM	< 100 nM	–	–
Cc1cc(NC(=O)c2ccc(S(=O)(=O)NCCO)cc2N2CC[C@@]3(C(F)F)C[C@H]3C2)nc(N2CCC(F)(F)CC2)n1 [Example 78]	< 10	100 to 500 nM	< 100 nM	–	–
Cc1cc(NC(=O)c2ccc(NS(=O)(=O)CCO)cc2N2CC[C@]3(C)C[C@@H]3C2)nc(N2CCC(F)(F)CC2)n1 [Example 35]	< 10	–	< 100 nM	100 to 500 nM	–
Cc1cc(NC(=O)c2c(F)cc(NS(=O)(=O)CCO)cc2N2CC[C@@]3(C(F)F)C[C@H]3C2)nc(N2CCC(F)(F)CC2)n1 [Example 72]	≥ 10	100 to 500 nM	< 100 nM	–	–
C[Si]1(C)CCN(c2cc(NS(=O)(=O)CCO)ccc2C(=O)Nc2cncc(N3CCC(F)(F)CC3)n2)CC1 [Example 108]	< 10	< 100 nM	< 100 nM	–	–
C[Si]1(C)CCN(c2cc(S(=N)(=O)C3CC3)ccc2C(=O)Nc2cccc(N3CCC(F)(F)CC3)n2)CC1 (stereo not shown) [Example 120]	< 10	< 100 nM	< 100 nM	–	–
CC(=O)NCCS(=O)(=O)Nc1ccc(C(=O)Nc2cccc(N3CCC(F)(F)CC3)n2)c(N2CC[Si](C)(C)CC2)c1 [Example 104]	< 10	100 to 500 nM	< 100 nM	–	–
O=C(Nc1ccnc(N2CCC(F)(F)CC2)n1)c1ccc(NS(=O)(=O)CCO)cc1N1CC[C@]2(C(F)F)C[C@@H]2C1 [Example 60]	≥ 10	< 100 nM	< 100 nM	–	–
Cc1cc(NC(=O)c2ccc(NS(=O)(=O)[C@H](C)CO)cc2N2CC[Si](C)(C)CC2)nc(N2CCC(F)(F)CC2)n1 [Example 111]	≥ 10	< 100 nM	< 100 nM	–	–
Cc1cc(NC(=O)c2ccc(NS(=O)(=O)CCO)cc2N2CCC3(C)C(C2)C3(F)F)nc(N2CCC(F)(F)CC2)n1 (stereo not shown) [Example 28, 2-(7,7-difluoro-6-methyl-3-azabicyclo[4.1.0]heptan-3-yl)-N-(2-(4,4-difluoropiperidin-1-yl)-6-methylpyrimidin-4-yl)-4-((2-hydroxyethyl)sulfonamido)benzamide]	< 10	–	< 100 nM	100 to 500 nM	–
Cc1cc(NC(=O)c2ccc(NS(=O)(=O)CCO)cc2N2CC[C@@]3(C)C[C@H]3C2)nc(N2CCC(F)(F)CC2)n1 [Example 36]	–	–	< 100 nM	100 to 500 nM	IC50 [3, 5]: 82 nM
Cc1cc(NC(=O)c2ccc(NS(=O)(=O)CCO)cc2N2CCC3(C)CC3C2)nc(N2CCC(F)(F)CC2)n1 (stereo not shown) [Example 37]	< 10	–	< 100 nM	< 100 nM	–
Cc1cc(NC(=O)c2ccc(NS(=O)(=O)CCO)cc2N2CC[C@@]3(C(F)F)C[C@H]3C2)nc(N2CCC(F)(F)CC2)c1 [Example 48, 2-((1R,6S)-6-(difluoromethyl)-3-azabicyclo[4.1.0]heptan-3-yl)-N-(6-(4,4-difluoropiperidin-1-yl)-4-methylpyridin-2-yl)-4-((2-hydroxyethyl)sulfonamido)benzamide]	≥ 10	–	< 100 nM	< 100 nM	–
C[C@H]1CN(c2cccc(NC(=O)c3ccc(NS(=O)(=O)CCO)cc3N3CC[Si](C)(C)CC3)n2)CCO1 [Example 17]	≥ 10	–	< 100 nM	< 100 nM	–
